Measurements: patent publication US20220387325A1, “METHOD FOR MANUFACTURING DISPERSION OF ULTRAFINE PARTICLES OF POORLY SOLUBLE SUBSTANCE” (NANO CUBE JAPAN CO., LTD., priority 2019, published 2022)
Each block holds one molecule with its values, some of them ahead of it.

How the values were obtained:
[1] = physchem; conditions: 25 °C, organic solvent or mixture
[2] = physchem; conditions: for solubility at 1 h: water, thermodynamic from solid
Procedure: To 100 mL of the liquid thus obtained, 100 mL of water was added and acetone was distilled off by concentration under reduced pressure to obtain a water dispersion of ultrafine particles of coenzyme Q10.
(§1) To 100 mL of the liquid thus obtained, 100 mL of water was added and acetone was distilled off by concentration under reduced pressure to obtain a water dispersion of ultrafine particles of busulfan. […] The solubility was measured in the same manner as in Example 1, except that busulfan was used in place of coenzyme Q10.
as §1, with “ethanol” for “acetone”, “docetaxel.” for “busulfan.”, “docetaxel” for “busulfan”
as §1, with “ethanol” for “acetone”, “paclitaxel.” for “busulfan.”, “paclitaxel” for “busulfan”
To 100 mL of the liquid thus obtained, 100 mL of water was added and ethanol was distilled off by concentration under reduced pressure to obtain a water dispersion of ultrafine particles of azadirachtin.
To 100 mL of the liquid thus obtained, 100 mL of 1-butanol was added and water was distilled off by concentration under reduced pressure to obtain a 1-butanol dispersion of ultrafine particles of ascorbic acid.

[3] = Solubility in good solvent; conditions: for solubility: organic solvent or mixture

Structure (SMILES): C/C=C(\C)C(=O)O[C@H]1C[C@@H](OC(C)=O)[C@@]2(C(=O)OC)CO[C@H]3[C@@H](O)[C@@](C)([C@]45O[C@@]4(C)[C@H]4C[C@@H]5O[C@@H]5OC=C[C@@]54O)[C@H]4[C@]1(CO[C@]4(O)C(=O)OC)[C@@H]32 [azadirachtin]
solubility [1]: ≥ 30 mg/mL
solubility at 1 h ([2]; 20 °C): ≤ 0.1 mg/mL

Structure (SMILES): CS(=O)(=O)OCCCCOS(C)(=O)=O [busulfan]
solubility ([3]; acetone, 50 °C): ≥ 30 mg/mL
solubility at 1 h ([2]; 25 °C): ≤ 0.01 mg/mL

The next lines start with the values.

solubility in acetone ([3]; acetone, 25° C.): ≥ 30 mg/mL
solubility in water [2]: ≤ 0.01 mg/mL
Structure (SMILES): COC1=C(OC)C(=O)C(C/C=C(\C)CC/C=C(\C)CC/C=C(\C)CC/C=C(\C)CC/C=C(\C)CC/C=C(\C)CC/C=C(\C)CC/C=C(\C)CC/C=C(\C)CCC=C(C)C)=C(C)C1=O [coenzyme Q10]

solubility ([3]; ethanol, 60 °C): ≥ 20 mg/mL
solubility at 1 h ([2]; 25 °C): ≤ 0.01 mg/mL
Structure (SMILES): CC(=O)O[C@@]12CO[C@@H]1C[C@H](O)[C@@]1(C)C(=O)[C@H](O)C3=C(C)[C@@H](OC(=O)[C@H](O)[C@@H](NC(=O)OC(C)(C)C)c4ccccc4)C[C@@](O)([C@@H](OC(=O)c4ccccc4)[C@H]21)C3(C)C [docetaxel]

solubility ([3]; ethanol, 25 °C): ≥ 30 mg/mL
solubility at 1 h ([2]; 25 °C): ≤ 0.01 mg/mL
Structure (SMILES): CC(=O)O[C@H]1C(=O)[C@@]2(C)[C@H]([C@H](OC(=O)c3ccccc3)[C@]3(O)C[C@H](OC(=O)[C@H](O)[C@@H](NC(=O)c4ccccc4)c4ccccc4)C(C)=C1C3(C)C)[C@]1(OC(C)=O)CO[C@@H]1C[C@@H]2O [paclitaxel]
